The results in this text go back to ChEMBL document CHEMBL1926529, “Synthesis of novel benzofurocoumarin analogues and their anti-proliferative effect on human cancer cell lines” (2012).

Test [1] has as its system TCC-SUP. Description: Growth inhibition of human TCCSUP cells assessed as cell viability after 48 hrs by MTS assay. Format: functional.
The subject of test [2] is HeLa. Description: Growth inhibition of human HeLa cells assessed as cell viability at 0.5 uM after 48 hrs by MTS assay. Format: functional, cell-based. On the technique in general: Tetrazolium dyes change colour on reduction, which living cells bring about.
For test [3], the system named is TCC-SUP. As to the kind of experiment: Growth inhibition of human TCCSUP cells assessed as cell viability at 0.5 uM after 48 hrs by MTS assay. In kind it is functional, cell-based.
Test [4] relates to HeLa. As to the kind of experiment: Growth inhibition of human HeLa cells assessed as cell viability after 48 hrs by MTS assay. In kind it is functional.
The test system of test [5] is MDA-MB-231. Description: Growth inhibition of human MDA-MB-231 cells assessed as cell viability after 48 hrs by MTS assay. The note with it: MDA-MB-231, 48 h. In kind it is functional.
Test [6] relates to MDA-MB-231. As to the kind of experiment: Growth inhibition of human MDA-MB-231 cells assessed as cell viability at 0.5 uM after 48 hrs by MTS assay. In kind it is functional, cell-based.

Calls of active or inactive are those of the source. No cut-off for these calls is given here.

The GI50 is the concentration that inhibits growth by half.

`O=c1ccc2c(ccc3oc4ccccc4c32)o1`: the GI50 amounted to 31 nM with TCC-SUP [1], 5 nM with HeLa [4] and 467 nM with MDA-MB-231 [5]. Besides, the “growth inhibition (GI)” value with HeLa [2], in the test with TCC-SUP [3] and in the test with MDA-MB-231 [6] was “Active” in each case.

For the molecule `COC(=O)C(C)NC(=O)c1cc2c(ccc3oc4ccccc4c32)oc1=O` (stereo not given), the GI50 came to 159 nM with TCC-SUP [1], 53 nM in the test with HeLa [4] and 106 nM in the test with MDA-MB-231 [5]. The “growth inhibition (GI)” value with HeLa [2], with TCC-SUP [3] and with MDA-MB-231 [6] was “Active” each time.

With `O=C(O)c1cc2c(ccc3oc4ccccc4c32)oc1=O`, the GI50 came out at 50 nM with TCC-SUP [1], 3 nM in the test with HeLa [4] and 97 nM in the test on MDA-MB-231 [5]. For the same molecule, the “growth inhibition (GI)” value in the test with HeLa [2], with TCC-SUP [3] and in the test on MDA-MB-231 [6] was “Active” in each case.

In the case of `CCOC(=O)C(CC(C)C)NC(=O)c1cc2c(ccc3oc4ccccc4c32)oc1=O` (stereo not given), the results for the concentration for 50% growth inhibition (GI50) with TCC-SUP [1], in the test with HeLa [4] and in the test with MDA-MB-231 [5] were 122 nM, 43 nM and 205 nM, respectively. For the same molecule, the “growth inhibition (GI)” value in the test on HeLa [2], in the test with TCC-SUP [3] and in the test on MDA-MB-231 [6] was “Active” throughout.

For the molecule `CCOC(=O)c1cc2c(ccc3oc4ccccc4c32)oc1=O`, the results for the concentration for 50% growth inhibition (GI50) with TCC-SUP [1], in the test on HeLa [4] and in the test on MDA-MB-231 [5] were 12 nM, 2 nM and 83 nM, respectively. In addition, the “growth inhibition (GI)” value in the test with HeLa [2], in the test with TCC-SUP [3] and in the test with MDA-MB-231 [6] was “Active” in each case.
